Earlier results, collected in publication PMC5884906, “Single Administration of HBK-15—a Triple 5-HT1A, 5-HT7, and 5-HT3 Receptor Antagonist—Reverses Depressive-Like Behaviors in Mouse Model of Depression Induced by Corticosterone” (Molecular Neurobiology, 2017).

Legend:
D2 receptors = biological target: D2 receptors; parameters: method as in unpublished results; details: not measured here; ref unpublished results; read-out: D2 receptor antagonism IC50; cited from earlier work
[1] = parameters: method as in unpublished results; details: ref unpublished results; cited from earlier work
[2] = biological target: dopaminergic D2 receptors; parameters: method as in PMID 26554929; details: read-out: affinity for dopaminergic D2 receptors, Ki; cited from earlier work
[3] = biological target: serotonergic 5-HT2A receptors; parameters: method as in PMID 26554929; details: read-out: affinity for serotonergic 5-HT2A receptors, Ki; cited from earlier work
5-HT2A receptors = biological target: 5-HT2A receptors; parameters: method as in unpublished results; details: not measured here; ref unpublished results; read-out: 5-HT2A receptor antagonism IC50; cited from earlier work
mice = details: scopolamine-induced deficits; cited from earlier work

For COc1ccccc1N1CCN(CCOCCOc2c(C)cccc2Cl)CC1.Cl [HBK-15, 1-[(2-chloro-6-methylphenoxy)ethoxyethyl]-4-(2-methoxyphenyl)piperazine hydrochloride], the IC50 (D2 receptors) is given as 68 nM, the “antipsychotic-like or cataleptogenic properties” value [1] is given as “did not show antipsychotic-like or cataleptogenic properties” and the Ki [2] is given as 54 nM. The Ki [3] was 109 nM, the IC50 (5-HT2A receptors) was 4460 nM and the effect on memory (mice) was “showed memory-enhancing properties”.
